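How tested: cells in 96-well plates exposed to compound for 48 hours at five concentrations. At the TGI there is no net growth.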
Columns and labels:
Experiment in all cases: NCI-60 cell line screen, 48 h
HS 578T breast = tested on: HS 578T breast
HCT-15 colon = tested on: HCT-15 colon
MDA-MB-435 = tested on: MDA-MB-435
MDA-N = tested on: MDA-N
HOP-62 NSCLC = tested on: HOP-62 NSCLC
SNB-19 CNS = tested on: SNB-19 CNS
MDA-MB-231 breast = tested on: MDA-MB-231 breast
U251 CNS = tested on: U251 CNS
OVCAR-5 ovarian = tested on: OVCAR-5 ovarian
CAKI-1 renal = tested on: CAKI-1 renal
SF-539 CNS = tested on: SF-539 CNS
UO-31 renal = tested on: UO-31 renal
HCT-116 colon = tested on: HCT-116 colon
SK-MEL-5 melanoma = tested on: SK-MEL-5 melanoma
COLO 205 colon = tested on: COLO 205 colon
DU-145 prostate = tested on: DU-145 prostate
LOX IMVI melanoma = tested on: LOX IMVI melanoma
HT29 colon = tested on: HT29 colon
ACHN renal = tested on: ACHN renal
PC-3 prostate = tested on: PC-3 prostate
SK-MEL-28 melanoma = tested on: SK-MEL-28 melanoma
MALME-3M melanoma = tested on: MALME-3M melanoma
SN12C renal = tested on: SN12C renal
NCI-H226 lung = tested on: NCI-H226 lung
SW-620 colon = tested on: SW-620 colon
T-47D breast = tested on: T-47D breast
HL-60(TB) leukemia = tested on: HL-60(TB) leukemia
NCI/ADR-RES ovarian = tested on: NCI/ADR-RES ovarian
786-0 renal = tested on: 786-0 renal
A498 renal = tested on: A498 renal
BT-549 breast = tested on: BT-549 breast
MOLT-4 leukemia = tested on: MOLT-4 leukemia
OVCAR-4 ovarian = tested on: OVCAR-4 ovarian
MCF7 breast = tested on: MCF7 breast
CCRF-CEM leukemia = tested on: CCRF-CEM leukemia
UACC-62 melanoma = tested on: UACC-62 melanoma
UACC-257 melanoma = tested on: UACC-257 melanoma
SNB-75 CNS = tested on: SNB-75 CNS
KM12 colon = tested on: KM12 colon
SK-MEL-2 melanoma = tested on: SK-MEL-2 melanoma
NCI-H522 lung = tested on: NCI-H522 lung
M14 melanoma = tested on: M14 melanoma
TK-10 renal = tested on: TK-10 renal
NCI-H23 lung = tested on: NCI-H23 lung
IGROV1 ovarian = tested on: IGROV1 ovarian
EKVX NSCLC = tested on: EKVX NSCLC
SF-268 CNS = tested on: SF-268 CNS
OVCAR-8 ovarian = tested on: OVCAR-8 ovarian
RXF 393 renal = tested on: RXF 393 renal
A549 NSCLC = tested on: A549 NSCLC
SF-295 CNS = tested on: SF-295 CNS
SK-OV-3 ovarian = tested on: SK-OV-3 ovarian
K-562 leukemia = tested on: K-562 leukemia
HCC-2998 colon = tested on: HCC-2998 colon
NCI-H460 lung = tested on: NCI-H460 lung
RPMI-8226 leukemia = tested on: RPMI-8226 leukemia
HOP-92 NSCLC = tested on: HOP-92 NSCLC
OVCAR-3 ovarian = tested on: OVCAR-3 ovarian

Measured: TGI

CNc1cc(Cl)ccc1C(=O)N1CCC[C@H]1CO
not listed: K-562 leukemia | HCC-2998 colon | NCI-H460 lung | RPMI-8226 leukemia | HOP-92 NSCLC | OVCAR-3 ovarian
> 100 µM: all other assays above

O=c1[nH]nc(Cc2ccc(Cl)cc2)n1CCO
not listed: HOP-62 NSCLC | CCRF-CEM leukemia | SNB-75 CNS | RXF 393 renal
> 100 µM: all other assays above
